Key:
[1] = molecular target: AMP-activated protein kinase (AMPK) alpha-1/beta-1/gamma-1 (Homo sapiens) (UniProt P54619+Q9Y478+Q13131); assay: Activation of human recombinant AMPK alpha1/beta1/gamma1 expressed in African green monkey COS7 cells assessed as increase in biotinylated […] (1 to 120 residues) peptide phosphorylation at Ser-79 residue measured after 60 mins by Alphascreen assay relative to control; type: cell-based; conditions: COS-7
[2] = molecular target: AMPK alpha2/beta1/gamma1 (Homo sapiens) (UniProt P54646+P54619+Q9Y478); assay: Activation of human recombinant AMPK alpha2/beta1/gamma1 expressed in African green monkey COS7 cells assessed as increase in biotinylated […] (1 to 120 residues) peptide phosphorylation at Ser-79 residue measured after 60 mins by Alphascreen assay relative to control; type: cell-based; conditions: COS-7
AMPK alpha1/beta2/gamma1 [3] = molecular target: T1, AMPK alpha1/beta2/gamma1 (Homo sapiens, UniProt O43741+P54619+Q13131); assay: Activation of human recombinant AMPK alpha1/beta2/gamma1 expressed in African green monkey COS7 cells assessed as increase in biotinylated […] (1 to 120 residues) peptide phosphorylation at Ser-79 residue measured after 60 mins by Alphascreen assay relative to control; type: cell-based; conditions: COS-7
Target sequence in this assay (O43741 whole entry, looked up, the tested form may be a part): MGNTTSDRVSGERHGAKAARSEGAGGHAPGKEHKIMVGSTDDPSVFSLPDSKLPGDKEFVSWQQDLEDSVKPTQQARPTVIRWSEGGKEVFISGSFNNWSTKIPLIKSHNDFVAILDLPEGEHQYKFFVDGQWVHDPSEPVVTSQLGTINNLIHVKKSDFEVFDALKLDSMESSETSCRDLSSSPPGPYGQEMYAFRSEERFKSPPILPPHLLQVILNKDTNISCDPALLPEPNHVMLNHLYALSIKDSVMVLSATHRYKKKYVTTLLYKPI
Target sequence in this assay (P54619 whole entry, looked up, the tested form may be a part): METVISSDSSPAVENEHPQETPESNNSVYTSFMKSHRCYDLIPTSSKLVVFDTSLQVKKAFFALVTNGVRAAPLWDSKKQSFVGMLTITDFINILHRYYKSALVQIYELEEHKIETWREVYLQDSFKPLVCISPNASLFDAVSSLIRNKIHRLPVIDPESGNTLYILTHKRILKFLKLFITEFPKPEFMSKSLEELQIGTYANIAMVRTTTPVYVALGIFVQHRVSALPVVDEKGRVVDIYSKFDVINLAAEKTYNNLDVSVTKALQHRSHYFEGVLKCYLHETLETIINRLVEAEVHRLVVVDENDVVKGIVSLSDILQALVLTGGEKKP
Target sequence in this assay (Q13131 whole entry, looked up, the tested form may be a part): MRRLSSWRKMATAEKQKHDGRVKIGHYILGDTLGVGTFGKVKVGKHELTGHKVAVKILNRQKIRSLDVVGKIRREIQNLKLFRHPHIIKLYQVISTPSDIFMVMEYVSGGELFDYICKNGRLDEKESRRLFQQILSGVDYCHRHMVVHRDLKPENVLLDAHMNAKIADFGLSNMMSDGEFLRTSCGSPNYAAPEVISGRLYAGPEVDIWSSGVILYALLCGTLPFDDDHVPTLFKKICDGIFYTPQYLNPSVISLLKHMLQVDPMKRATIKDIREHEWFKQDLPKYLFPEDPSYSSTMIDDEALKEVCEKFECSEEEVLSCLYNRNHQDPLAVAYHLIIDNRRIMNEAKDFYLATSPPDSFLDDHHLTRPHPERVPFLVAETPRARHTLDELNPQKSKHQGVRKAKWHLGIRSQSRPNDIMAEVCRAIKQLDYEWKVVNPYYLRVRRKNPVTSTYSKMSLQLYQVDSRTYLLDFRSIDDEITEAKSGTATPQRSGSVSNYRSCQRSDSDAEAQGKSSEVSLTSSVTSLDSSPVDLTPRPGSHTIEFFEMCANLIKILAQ

[4] = molecular target: T2, AMP-activated protein kinase (AMPK) alpha-1/beta-1/gamma-1 (Homo sapiens, UniProt P54619+Q13131+Q9Y478); assay: Activation of human recombinant AMPK alpha1/beta1/gamma1 expressed in African green monkey COS7 cells assessed as increase in biotinylated […] (1 to 120 residues) peptide phosphorylation at Ser-79 residue measured after 60 mins by Alphascreen assay; type: cell-based, COS-7
T2 sequence (P54619 whole entry, the tested form may be a part): as the sequence (P54619 whole entry, looked up, the tested form may be a part) above
T2 sequence (Q9Y478 whole entry, the tested form may be a part): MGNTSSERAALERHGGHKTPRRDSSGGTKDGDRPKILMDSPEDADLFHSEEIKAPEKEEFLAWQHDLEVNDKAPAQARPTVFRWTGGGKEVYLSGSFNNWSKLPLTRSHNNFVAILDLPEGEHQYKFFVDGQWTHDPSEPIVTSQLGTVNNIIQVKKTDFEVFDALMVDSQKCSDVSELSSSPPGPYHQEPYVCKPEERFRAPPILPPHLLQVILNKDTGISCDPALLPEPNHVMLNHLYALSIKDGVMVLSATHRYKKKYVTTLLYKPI
T2 sequence (Q13131 whole entry, the tested form may be a part): as the sequence (Q13131 whole entry, looked up, the tested form may be a part) above

AMPK alpha2/beta1/gamma1 = AMPK alpha2/beta1/gamma1 (Homo sapiens, UniProt P54619+P54646+Q9Y478); assay: Activation of human recombinant AMPK alpha2/beta1/gamma1 expressed in African green monkey COS7 cells assessed as increase in biotinylated […] (1 to 120 residues) peptide phosphorylation at Ser-79 residue measured after 60 mins by Alphascreen assay; type: cell-based, COS-7
AMPK alpha2/beta2/gamma1 = AMPK alpha2/beta2/gamma1 (Homo sapiens, UniProt O43741+P54619+P54646); assay: Activation of human recombinant AMPK alpha2/beta2/gamma1 expressed in African green monkey COS7 cells assessed as increase in biotinylated […] (1 to 120 residues) peptide phosphorylation at Ser-79 residue measured after 60 mins by Alphascreen assay; type: cell-based, COS-7
AMPK alpha2/beta2/gamma3 = AMPK alpha2/beta2/gamma3 (Homo sapiens, UniProt O43741+P54646+Q9UGI9); assay: Activation of human recombinant AMPK alpha2/beta2/gamma3 expressed in African green monkey COS7 cells assessed as increase in biotinylated […] (1 to 120 residues) peptide phosphorylation at Ser-79 residue measured after 60 mins by Alphascreen assay; type: cell-based, COS-7
[5] = molecular target: AMPK alpha2/beta2/gamma3 (Homo sapiens) (UniProt P54646+O43741+Q9UGI9); assay: Activation of human recombinant AMPK alpha2/beta2/gamma3 expressed in African green monkey COS7 cells assessed as increase in biotinylated […] (1 to 120 residues) peptide phosphorylation at Ser-79 residue measured after 60 mins by Alphascreen assay relative to control; type: cell-based; conditions: COS-7
[6] = molecular target: AMPK alpha2/beta2/gamma1 (Homo sapiens) (UniProt P54646+O43741+P54619); assay: Activation of human recombinant AMPK alpha2/beta2/gamma1 expressed in African green monkey COS7 cells assessed as increase in biotinylated […] (1 to 120 residues) peptide phosphorylation at Ser-79 residue measured after 60 mins by Alphascreen assay relative to control; type: cell-based; conditions: COS-7
Sequence of AMPK alpha2/beta2/gamma1 (Homo sapiens) (O43741 whole entry, looked up, the tested form may be a part): as the sequence (O43741 whole entry, looked up, the tested form may be a part) above
Sequence of AMPK alpha2/beta2/gamma1 (Homo sapiens) (P54619 whole entry, looked up, the tested form may be a part): as the sequence (P54619 whole entry, looked up, the tested form may be a part) above
Sequence of AMPK alpha2/beta2/gamma1 (Homo sapiens) (P54646 whole entry, looked up, the tested form may be a part): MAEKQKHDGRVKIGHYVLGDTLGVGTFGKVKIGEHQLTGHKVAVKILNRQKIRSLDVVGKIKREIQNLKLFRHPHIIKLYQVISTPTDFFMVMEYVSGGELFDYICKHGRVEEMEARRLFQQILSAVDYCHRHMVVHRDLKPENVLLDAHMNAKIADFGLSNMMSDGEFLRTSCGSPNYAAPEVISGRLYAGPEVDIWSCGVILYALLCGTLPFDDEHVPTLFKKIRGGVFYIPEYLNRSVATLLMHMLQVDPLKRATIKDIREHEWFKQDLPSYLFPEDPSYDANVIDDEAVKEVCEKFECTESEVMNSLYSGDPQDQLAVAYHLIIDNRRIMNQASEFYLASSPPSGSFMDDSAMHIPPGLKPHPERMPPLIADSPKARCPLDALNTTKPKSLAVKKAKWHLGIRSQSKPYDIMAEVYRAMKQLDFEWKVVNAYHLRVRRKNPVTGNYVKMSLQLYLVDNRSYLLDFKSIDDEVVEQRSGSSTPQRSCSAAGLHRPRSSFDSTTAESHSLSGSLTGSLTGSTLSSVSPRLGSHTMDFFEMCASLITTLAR

AMPK alpha1/beta2/gamma1 [7] = molecular target: T1, AMPK alpha1/beta2/gamma1; assay: Activation of human recombinant AMPK alpha1/beta2/gamma1 expressed in African green monkey COS7 cells assessed as increase in biotinylated […] (1 to 120 residues) peptide phosphorylation at Ser-79 residue measured after 60 mins by Alphascreen assay; type: cell-based, COS-7
Target sequence in this assay (O43741 whole entry, the tested form may be a part): as the sequence (O43741 whole entry, looked up, the tested form may be a part) above
Target sequence in this assay (P54619 whole entry, the tested form may be a part): as the sequence (P54619 whole entry, looked up, the tested form may be a part) above
Target sequence in this assay (Q13131 whole entry, the tested form may be a part): as the sequence (Q13131 whole entry, looked up, the tested form may be a part) above

[8] = molecular target: T2, AMP-activated protein kinase (AMPK) alpha-1/beta-1/gamma-1; assay: Activation of full length human recombinant N-terminal GST-tagged AMPK alpha1/beta1/gamma1 expressed in baculovirus infected High Five cells using NH2-HMRSAMSGLHLVKRR CONH2 substrate after 60 mins by ADP-Glo kinase assay; design: species or system BTI-TN-5B1-4

| fold change (FC) [1] | fold change (FC) [2] | fold change (FC) (AMPK alpha1/beta2/gamma1 [3]) | EC50 [4] [nM] | EC50 (AMPK alpha2/beta1/gamma1) [nM] | EC50 (AMPK alpha2/beta2/gamma1) [nM] | EC50 (AMPK alpha2/beta2/gamma3) [nM] | fold change (FC) [5] | fold change (FC) [6] | EC50 (AMPK alpha1/beta2/gamma1 [7]) [nM] | EC50 [8] [nM] | Compound |
| --- | --- | --- | --- | --- | --- | --- | --- | --- | --- | --- | --- |
| 27 | 13 | 10 | 11 | 27 | 2 | 4 | 16 | 13 | 4 | – | Oc1cccc(O)c1-c1ccc(-c2cc3nc(O[C@@H]4CO[C@H]5[C@@H]4OC[C@H]5O)[nH]c3cc2Cl)cc1 |
| – | – | – | – | – | – | – | – | – | – | 3 | CS(=O)(=O)Nc1ccc(-c2ccc(-c3nc4nc(O[C@@H]5CO[C@H]6[C@@H]5OC[C@H]6O)[nH]c4cc3Cl)cc2)c(F)c1 |

Reference: ChEMBL document CHEMBL3856285, “Recent progress in the identification of adenosine monophosphate-activated protein kinase (AMPK) activators” (Bioorg Med Chem Lett, 2016)
